Row | melting point | Compound
1 | 122 to 123 °C | CCOc1ccc(-c2nc(C(O)c3ccc(OC)c(OC)c3)cs2)cc1OCC (stereo not drawn)
2 | 199 °C | Cc1cc(C)cc(NCc2ccc3nc(NCCCN4CCOCC4)n(Cc4nc(C)ccc4O)c3c2)c1
3 | 135 to 142 °C | COc1cc(OCc2ccccn2)ccc1/C=C/c1cc(/C=C/c2ccc3[nH]cnc3c2)n[nH]1
4 | 94 to 98 °C | CCCCCCCCCCCCc1cnn(C(C(=O)O)c2ccccc2)n1 (stereo not drawn)
5 | 160 to 161 °C | COc1cc(OC)cc(N2CCN(C(=S)Nc3cc4c(nc3OC)CCCC4)CC2)c1
6 | 120 to 121 °C | O=[N+]([O-])c1cn2c(n1)O[C@@H](COc1ccc(N3CCC(Nc4ccc(Oc5ccc(OC(F)(F)F)cc5)cc4)CC3)cc1)CC2
7 | 156 to 158 °C | CC(C)CC(NC(=O)C(Cc1ccccc1)NC(=O)C1CCCCC1CS)C(=O)O (stereo not drawn)
8 | 135 °C | O=C(NC1CCC1)c1ccc(F)c2c1CC(N(CCCc1c[nH]c3ccc(F)cc13)C1CCC1)CO2 (stereo not drawn)
9 | 197 to 202 °C | CCC1Cn2c(ncc(C(N)=O)c2=O)-c2ccccc21 (stereo not drawn)
10 | 118 °C | c1ccc2c(c1)SCCc1c-2n(CCN2CCCCC2)c2ccccc12
11 | 200 to 202 °C | Nc1nc2c(sc(=O)n2C/C=C\CCl)c(=O)[nH]1
12 | 74 to 76 °C | CCCN(CC)c1cc(C)nc(Oc2c(C)cc(Cl)cc2C)c1C
13 | 138 to 140 °C | Cc1cc(OC(=O)c2ccc(Cl)c(OCCn3cnnn3)c2Cl)n(C)n1
14 | 150 to 171 °C | CCOC(=O)c1nc2cc(N)ccn2n1
15 | 89 to 90 °C | O=S1(=O)NCc2ccccc2O1
16 | 143 °C | CC[C@H](Cc1sccc1Cl)Nc1ncnc2c1ncn2[C@@H]1C[C@H](CF)[C@@H](O)[C@H]1O
17 | 168 to 170 °C | Cc1[nH]c2ccccc2c1CN1CCC(c2c(Cl)cccc2Cl)CC1
18 | 196 to 200 °C | CC=Cc1cc(-c2ccc(F)cc2)cc(C(=O)O)c1O
19 | 140 to 141 °C | CC(=O)NCc1ccc2ccn(C3CCN(CCc4ccc(Br)cc4)CC3)c2c1
20 | 190 °C | Cn1ccc(NC(=O)c2cc(C#N)cc(C(F)(F)F)n2)n1
21 | 135 to 136 °C | CS(=O)c1ccc(C2=C(c3ccccc3)C(=O)C(C)(C)O2)c(Cl)c1 (stereo not drawn)
22 | 221 °C | CCCCN1CCC(CNC(=O)c2ccc(N)n3cc(-c4ccccc4)nc23)CC1
23 | 220 to 221 °C | COc1ccc(COc2ccc(-c3ccc(C#N)c(=O)[nH]3)cc2OC)cc1OC
24 | 119 to 120 °C | CCOC(=O)COc1ccc(NC(=O)OC(C)(C)C)cc1Cl

Row | melting point | Compound
25 | 258 to 261 °C | CN(C)C=Nc1ncc(S(=O)(=O)NC(C)(C)C)c(O)n1
26 | 166 to 169 °C | CC(=O)OC(C(=O)O)c1c(C(C)C)cc(C(C)C)cc1C(C)C (stereo not drawn)
27 | > 250 °C | Nc1c(Br)cc(Cc2cc(Br)c(N)c(Br)c2)cc1Br
28 | 91 to 94 °C | CCOC(=O)c1c(SCOC)nc2c(F)c(F)c(F)cc2c1O
29 | 214 to 216 °C | CCOC(=O)c1cnc2sc(Br)c(C)c2c1O
30 | 95 to 97 °C | COC(=O)CCc1nc(C=O)ccc1OC
31 | 132 to 133 °C | COc1cc(C(C)C)c2c(c1)S(=O)(=O)N(COc1cc(C(F)(F)F)nn1-c1ccccn1)C2=O
32 | 203 to 204 °C | COc1cc(NC(=O)/C=C/c2ccc(C(C)(C)C)cc2)ccc1O
33 | 172 °C | C=C(F)C[C@@H](C(=O)O)N(Cc1cccnc1)S(=O)(=O)c1ccc(OC)cc1
34 | 217 to 219 °C | COC(=O)c1cc(N)c(NC(C)=O)c(Br)c1O
35 | 243 to 245 °C | Cc1cc(COc2nn3c(-c4cc(C)on4)nnc3c3ccccc23)no1
36 | 297 to 300 °C | Cc1ccc(N2CN(C(=O)c3ccccc3)C3=NN=CC3=C2N)cc1
37 | 106 °C | CNC(=O)NCCN(c1ccc(Cl)cc1Cc1c(F)cccc1F)S(=O)(=O)c1ccc(OC)c(OC)c1
38 | 58 to 60 °C | OCC=Cc1ccsc1
39 | > 230 °C | CSc1nn2c(N3CCN(C)CC3)cc(Cl)nc2c1S(=O)(=O)c1ccccc1
40 | 68 to 69 °C | Cc1cncc(C)c1-c1c(C)cc(OS(=O)(=O)C(F)(F)F)cc1C
41 | 148 °C | CCc1nnc(-c2ccc(N(C)C)cc2)n1-c1ccc(OC)cc1
42 | 128 to 130 °C | CCc1nn(CC(=N)NO)c(CC)c1Oc1cc(Cl)cc(Cl)c1
43 | 30.5 to 31.5 °C | COC(=O)CCCCCCCCCCCCc1ccccc1
44 | 144 to 146 °C | Cc1cc(-c2cc3cc(OCCNC[C@H](O)COc4ccccc4)ccc3o2)no1
45 | 70.1 to 75.9 °C | CC1(C)OC[C@H](COc2nc(Oc3ccc(F)cc3F)nc3[nH]nc(-c4ccccc4Cl)c23)O1
46 | > 350 °C | COc1ccc2[nH]c(=O)n3c(=O)[nH]nc3c2c1
47 | 261 to 262 °C | Cn1c(=O)c(-c2ccc(Cl)cc2Cl)cc2c3cc(-c4csc(CO)n4)ccc3n(C)c21
48 | 183 to 184 °C | COc1ccc(-c2c(Cl)c(CN3CCN(C(C)=O)CC3)nc3sc4c(c23)CCN(Cc2ccccc2)C4)cc1OC

Row | melting point | Compound
49 | 247 to 248 °C | COc1cc2ccnc(N3CCN(C(=O)Nc4ccc([N+](=O)[O-])cc4)CC3)c2cc1OC
50 | 150 to 151 °C | CC(C)(C)OC(=O)Nc1ccc2ccc(S(=O)(=O)N(Cc3ccccc3)Cc3ccccc3)cc2c1Br
51 | 144 °C | COC(=O)C1Oc2cc(Cl)ccc2C(C)(c2ccccc2)O1 (stereo not drawn)
52 | 257 to 261 °C | O=C(O)c1cn(Cc2csnn2)c2cc(F)c(F)cc2c1=O
53 | 180 to 184 °C | COCCC(O)c1cc2c(=O)n(NS(C)(=O)=O)c(=O)[nH]c2cc1C(F)(F)F (stereo not drawn)
54 | 70 to 74 °C | CCC(=O)C1C(=O)CC(C#N)CC1=O (stereo not drawn)
55 | 296 to 298 °C | N#Cc1ccc2oc(-c3ccc(O)cc3)cc(=O)c2c1
56 | 122 to 124 °C | COc1cc(-c2cn(-c3cccc(OCCn4ccnc4)c3)c3ncnc(N)c23)ccc1OCc1ccccc1
57 | 65 to 67 °C | CC(=O)O[C@@H](c1cnnn1-c1ccccc1)[C@@H](CCN1CCC(N2CCCCC2=O)CC1)c1ccc(Cl)c(Cl)c1 (racemic)
58 | 121 to 124 °C | CN(NC=C1CSc2ccc(Cl)cc2C1=O)C(=O)OC(C)(C)C
59 | 123 to 124 °C | NC(=O)C(c1ccc(F)c(F)c1)c1ccccn1 (racemic)
60 | 136 to 138 °C | O=C(NCCOc1ccc(CC(Oc2cccc(F)c2)C(=O)O)cc1)c1ccc(-c2ccccn2)cc1 (stereo not drawn)
61 | 163 to 165 °C | CN1CC=C(c2cnn3c(-c4cccc(NC(=O)c5cccc(C(F)(F)F)c5)c4)ccnc23)CC1
62 | 90 to 93 °C | CCCCCCCCCCCCSC(=O)CS(=O)(=O)Nc1c(OC)cc(OC)cc1OC
63 | 262 to 263 °C | Cc1cc(C)c([N+](=O)[O-])cc1-n1c(C)cc(C)c(C#N)c1=O
64 | 237 °C | Cn1c2cccc(C#N)c2c2nc3ccccc3nc21
65 | 218 to 219 °C | CC1(C)C(=O)NC(c2ccc(NC(=O)CCl)cc2)c2ccccc21 (stereo not drawn)
66 | 205 to 208 °C | O=C(Oc1cc(F)ccc1[N+](=O)[O-])c1cc2cc(CCl)ccc2oc1=O
67 | > 300 °C | N#Cc1cccc(-c2csc(N=C(N)N)n2)n1
68 | 106 to 107 °C | ClC(Cl)(Cl)c1nsc(N2CCCC2)n1
69 | 191 to 192 °C | Cc1nc(-c2cccc(CN(C(=O)Nc3ccc(-c4ccccc4S(=O)(=O)NC(C)(C)C)cc3)c3ccccc3)c2)no1
70 | 155 °C | Nc1ccc(OCc2c(Cl)cccc2Cl)cc1[N+](=O)[O-]
71 | 120 to 122 °C | COc1cc2nc(SCc3ncc(C)c(N(C)C)c3Cl)[nH]c2cc1OC
72 | 143 to 144 °C | Cc1nccn1C(=O)c1ccccc1

Row | melting point | Compound
73 | 252 to 253 °C | COc1cc(-c2cc(F)cc(C#N)c2)cc2c1NC(=O)OC2(C)C
74 | 187 to 189 °C | COc1cc(OC)nc(Oc2ccc3ccccc3c2C(=O)O)n1
75 | 103 to 105 °C | Cc1cc(F)ccc1-c1nc(OCCNC(=O)OC(C)(C)C)nc2c1ccc(=O)n2-c1c(F)cccc1F
76 | 139 °C | COc1cc(C)nc(-c2cnnn2NS(=O)(=O)c2ccccc2Cl)n1
77 | 82 to 83 °C | CN(C)CCOc1ccc(C=O)c(O)c1
78 | 169 °C | COc1cc2c(CC(=O)O)c(C)n(C(=O)c3ccc(Cl)s3)c2cc1F
79 | 116 to 118 °C | Cc1nc(-c2ccc(-c3cscn3)cc2)c(-c2ccc(S(N)(=O)=O)c(F)c2)o1
80 | 234 to 235 °C | CN(C(=O)c1ccccc1)c1cccc(-c2nc(=O)c3ccccc3s2)n1
81 | 101 to 103 °C | CCc1nc2c(Cl)ncnc2n1Cc1ccc(OC)cc1
82 | 140 to 141 °C | O=C1NC(=O)C(CC#Cc2ccc(Cl)cc2)(S(=O)(=O)c2ccccn2)S1 (stereo not drawn)
83 | 58 to 60 °C | COC(=O)C(C#N)c1ccccc1[N+](=O)[O-] (stereo not drawn)
84 | 229 °C | Cc1cc(-c2ccc(C(F)(F)F)cc2)nc(-c2cccc(-c3cccc(S(N)(=O)=O)c3)n2)c1
85 | 156 to 157 °C | CC(C)=COc1ccc2c(C)cc(=O)oc2c1C(=O)C=Cc1cccnc1
86 | 60 to 62 °C | C=C(CO)COC(=O)NCCCCCCCCCCCCCCC
87 | 165 to 166 °C | CCOC(=O)c1cc(NCc2c(C)cccc2C)c2nc(C)n(OC)c2c1
88 | 72 to 75 °C | O=C(O)c1ccc(OCCCOCCCCCCBr)cc1
89 | 187 to 188 °C | CS(=O)(=O)c1ccc(-c2cnn(-c3ccc(F)c(F)c3)c(=O)c2-c2ccc(Cl)cc2)cc1
90 | 147 to 150 °C | N#Cc1ccc(/C=C/C=C/C=O)cc1
91 | 89 to 91 °C | CCOC(=O)c1ccc(C#CC(O)c2cc(C(C)(C)C)cc(C(C)(C)C)c2OCOC)cc1 (stereo not drawn)
92 | 138 to 140 °C | O=C(Cn1c2c(c3ccccc31)CCNCC2)Nc1cccnc1
93 | 126 to 129 °C | Cc1cc(C(O)(C=Cc2ccc(Cl)cc2)C(F)(F)F)ccc1N (stereo not drawn)
94 | 243 to 246 °C | CC1(Cn2c(=O)oc3ccc(Br)cc32)Cn2cc([N+](=O)[O-])nc2O1 (stereo not drawn)

Row | Compound | melting point
95 | CCCCC1(N(C)C)CCC(c2[nH]c3ccc(C#N)cc3c2C)CC1 (stereo not drawn) | 162 to 166 °C
96 | CCOC(=O)c1cnn2c(-c3cccc(C(F)(F)F)c3)ccnc12 | 97 to 99 °C
97 | CN1C(=O)C(C)(C)N=C(c2ccccc2F)c2c1cc(Br)c(N)c2Br | 202 °C
98 | CCCCCC(C)C(C)c1cc(O)c2c3c(c(=O)oc2c1)SCC3 (stereo not drawn) | 165 to 166 °C

From a melting point compilation (Tetko et al.; mined from patent text by program, amines drawn as free bases though some values may be those of a salt)
